Results as given in US4505914A, “Pharmaceutical for the treatment of sleep disorders” (Merckle GmbH, priority 1982, dated 1985).
Values joined by “and” are separate entries in the source; they are usually repeats but may differ in a detail not shown here. Identical values can stand only once.

What was measured:
male NMRJ mice [1] = assay: Sleeping time prolongation under the influence of cinnarizine and flunarizine (ED50); type: in vivo, mouse; settings: for Effect on the action of barbiturates: in words; for ED50: sleeping time increased by 50%
Description: (§1) A typical representative from the group of barbiturates with long action (phenobarbital), with short to average action (cyclobarbital-calcium) as well as ultra short action (hexobarbital) as well as a combination of two barbiturates (cyclobarbital-calcium+hexobarbital) was applied orally in graduated doses.
Determination of the sleeping time prolongation under the influence of […]

male NMR.tau. mice [2] = assay: Sleep duration, prolongation of sleeping time and ED50 under the influence of cinnarizine (Table 3); type: in vivo, mouse
Description: as §1

male NMR.tau. mice [3] = assay: Onset of effect (beginning of the excitation stage); type: in vivo, mouse
Description: (§2) As a criterium for the onset of the effect, the beginning of the excitation stage was measured. For the optimum effect, the beginning of the sleep phase was tested every 10 minutes by the tail and corneal reflex (according to Irvin) according to the following designations:
(§3) Sleeping Time, Onset of Effect and Optium Effect under the influence of […]

tail and corneal reflex = assay: Optimum effect (tail and corneal reflex according to Irvin); type: in vivo, mouse; set-up: key to Optimum Reflex: 0: normal reaction; -1: slightly lessened; -2: clearly lessened; -3: highly lessened; -4: complete lack of reaction
Description: as §2
-4 = complete lack of reaction
as §3

male NMRJ mice [4] = assay: Determination of the oral ED50 of the barbiturates (sleep time); type: in vivo, mouse; settings: for ED50: Mus musculus, 0.5 h, oral, dose required for a 30-minute sleeping period
Description: as §1
Determination of the oral ED50 of
the barbiturates using 10 male NMR.tau. mice/group

[5] = literature, in words; cited from earlier work
[6] = in words; cited from earlier work
[7] = literature, in words; cited from earlier work; remark: listed apart in the source
[8] = cinnarizine 0.50 + hexobarbital 710 mg/kg
[9] = cinnarizine 0.75 + hexobarbital 710 mg/kg
[10] = cinnarizine 1.0 + cyclobarbital calcium 239 mg/kg
[11] = cinnarizine 1.0 + cyclobarbital calcium + hexobarbital (40 + 30) 225 mg/kg
[12] = cinnarizine 1.00 + hexobarbital 710 mg/kg
[13] = cinnarizine 2.5 + cyclobarbital calcium 239 mg/kg
[14] = cinnarizine 2.5 + cyclobarbital calcium + hexobarbital (40 + 30) 225 mg/kg
[15] = cinnarizine 5.0 + cyclobarbital calcium 239 mg/kg
[16] = cinnarizine 5.0 + cyclobarbital calcium + hexobarbital (40 + 30) 225 mg/kg
[17] = cyclobarbital calcium 239 mg/kg alone (C)
[18] = hexobarbital 710 mg/kg alone (C)

Compound: C(=C\c1ccccc1)/CN1CCN(C(c2ccccc2)c2ccccc2)CC1 [Cinnarizine, 1-benzhydryl-4-trans-cinnamylpiperazine]
- Sleep Time (male NMRJ mice [1]; cinnarizine 0.5 mg/kg + hexobarbital 710 mg/kg): 35.37 min
- Sleep Time (male NMRJ mice [1]; cinnarizine 1.0 mg/kg + cyclobarbital-Ca 239 mg/kg): 24.34 min
- Sleep Time (male NMRJ mice [1]; cinnarizine 1.0 mg/kg + cyclobarbital-Ca + hexobarbital (40 + 30) 225 mg/kg): 31.09 min
- Sleep Time (male NMRJ mice [1]; cinnarizine 1.0 mg/kg + hexobarbital 710 mg/kg, **p <0.01): 65.58 min
- Sleep Time (male NMRJ mice [1]; cinnarizine 1 mg/kg + phenobarbital 256 mg/kg): 25.78 min
- Sleep Time (male NMRJ mice [1]; cinnarizine 2.5 mg/kg + cyclobarbital-Ca 239 mg/kg, *p <0.05): 41.43 min
- Sleep Time (male NMRJ mice [1]; cinnarizine 2.5 mg/kg + cyclobarbital-Ca + hexobarbital (40 + 30) 225 mg/kg): 37.92 min
- Sleep Time (male NMRJ mice [1]; cinnarizine 5.0 mg/kg + cyclobarbital-Ca 239 mg/kg, **p <0.01): 49.99 min
- Sleep Time (male NMRJ mice [1]; cinnarizine 5.0 mg/kg + cyclobarbital-Ca + hexobarbital (40 + 30) 225 mg/kg, *p <0.05): 53.22 min
- Sleep Time (male NMRJ mice [1]; cinnarizine 5 mg/kg + phenobarbital 256 mg/kg): 32.85 min
- Sleep Time (male NMRJ mice [1]; cinnarizine 10 mg/kg + phenobarbital 256 mg/kg, *p <0.05): 43.55 min
- Sleep Time (male NMRJ mice [1]; cinnarizine […] + hexobarbital 710 mg/kg, **p <0.01): 43.93 min
- Effect on the action of barbiturates (male NMRJ mice [1]): potentiating or enhancing effect
- Sleep Time (male NMR.tau. mice [2]; [8]): 40.66 min
- Sleep Time % of control (male NMR.tau. mice [2]; [8]): 113.4%
- Sleep Time (male NMR.tau. mice [2]; [9]): 42.38 min
- Sleep Time % of control (male NMR.tau. mice [2]; [9]): 118.2%
- Sleep Time (male NMR.tau. mice [2]; [10]): 26.21 min
- Sleep Time % of control (male NMR.tau. mice [2]; [10]): 106.4%
- Sleep Time (male NMR.tau. mice [2]; [11]): 32.42 min
- Sleep Time % of control (male NMR.tau. mice [2]; [11]): 92.6%
- Sleep Time (male NMR.tau. mice [2]; [12]): 76.14 min
- Sleep Time % of control (male NMR.tau. mice [2]; [12]): 212.3%
- Sleep Time (male NMR.tau. mice [2]; [13]): 31.08 min
- Sleep Time % of control (male NMR.tau. mice [2]; [13]): 126.1%
- Sleep Time (male NMR.tau. mice [2]; [14]): 38.65 min
- Sleep Time % of control (male NMR.tau. mice [2]; [14]): 110.4%
- Sleep Time (male NMR.tau. mice [2]; [15]): 42.49 min
- Sleep Time % of control (male NMR.tau. mice [2]; [15]): 172.4%
- Sleep Time (male NMR.tau. mice [2]; [16]): 54.82 min
- Sleep Time % of control (male NMR.tau. mice [2]; [16]): 156.6%
- Onset p.a. % of control (male NMR.tau. mice [3]; [8]): 86.2%
- Onset x (male NMR.tau. mice [3]; [8]): 2.49 min
- Onset p.a. % of control (male NMR.tau. mice [3]; [9]): 76.8%
- Onset x (male NMR.tau. mice [3]; [9]): 2.22 min
- Onset p.a. % of control (male NMR.tau. mice [3]; [10]): 51.3%
- Onset x (male NMR.tau. mice [3]; [10]): 2.19 min
- Onset p.a. % of control (male NMR.tau. mice [3]; [11]): 94.8%
- Onset x (male NMR.tau. mice [3]; [11]): 1.09 min
- Onset p.a. % of control (male NMR.tau. mice [3]; [12]): 55.0%
- Onset x (male NMR.tau. mice [3]; [12]): 1.59 min
- Onset p.a. % of control (male NMR.tau. mice [3]; [13]): 54.1%
- Onset x (male NMR.tau. mice [3]; [13]): 2.31 min
- Onset p.a. % of control (male NMR.tau. mice [3]; [14]): 102.6%
- Onset x (male NMR.tau. mice [3]; [14]): 1.18 min
- Onset p.a. % of control (male NMR.tau. mice [3]; [15]): 59.5%
- Onset x (male NMR.tau. mice [3]; [15]): 2.54 min
- Onset p.a. % of control (male NMR.tau. mice [3]; [16]): 102.6%
- Onset x (male NMR.tau. mice [3]; [16]): 1.18 min
- Optimum % of control (tail and corneal reflex; [8]): 278.2-336.0%
- Optimum Min. (tail and corneal reflex; [8]): 10 to 30 min
- Optimum Reflex (tail and corneal reflex; [8]): -3
- Optimum Min. (tail and corneal reflex; [9]): 10 to 20 min
- Optimum Reflex (tail and corneal reflex; [9]): -3
- Optimum % of control (tail and corneal reflex; [10]): 166.7%
- Optimum Min. (tail and corneal reflex; [10]): 10 min
- Optimum Reflex (tail and corneal reflex; [10]): -1
- Optimum % of control (tail and corneal reflex; [11]): 156.3-183.3%
- Optimum Min. (tail and corneal reflex; [11]): 10 to 20 min
- Optimum Reflex (tail and corneal reflex; [11]): -2
- Optimum % of control (tail and corneal reflex; [12]): 300.8-407.0%
- Optimum Min. (tail and corneal reflex; [12]): 10 to 30 min
- Optimum Reflex (tail and corneal reflex; [12]): -4
- Optimum % of control (tail and corneal reflex; [13]): 350.0%
- Optimum Min. (tail and corneal reflex; [13]): 10 to 30 min
- Optimum Reflex (tail and corneal reflex; [13]): -1
- Optimum % of control (tail and corneal reflex; [14]): 138.8-177.5%
- Optimum Min. (tail and corneal reflex; [14]): 10 to 20 min
- Optimum Reflex (tail and corneal reflex; [14]): -2
- Optimum % of control (tail and corneal reflex; [15]): 350.0%
- Optimum Min. (tail and corneal reflex; [15]): 10 min
- Optimum Reflex (tail and corneal reflex; [15]): -2
- Optimum % of control (tail and corneal reflex; [16]): 175.0-233.0%
- Optimum Min. (tail and corneal reflex; [16]): 10 to 40 min

Compound: CCC1(C2=CCCCC2)C(=O)NC(=O)NC1=O [Cyclobarbital-Ca]
- Sleep Time (male NMRJ mice [4]; 200 mg/kg oral): 14.01 min
- Sleep Time (male NMRJ mice [4]; 250 mg/kg oral): 34.38 min
- Sleep Time (male NMRJ mice [4]; 300 mg/kg oral): 90 min
- Sleep Time, individual animals (male NMRJ mice [4]; 300 mg/kg oral, footnote 1): 90 min and 60.5 min and 53.3 min
- ED50 (male NMRJ mice [4]): 239 mg/kg
- Sleep Time (male NMRJ mice [1]; cyclobarbital-Ca 239 mg/kg alone, cinnarizine series): 27.45 min
- Sleep Time (male NMRJ mice [1]; cyclobarbital-Ca 239 mg/kg alone, flunarizine series): 32.03 min
- Sleep Time (male NMR.tau. mice [2]; [17]): 24.64 min
- Sleep Time % of control (male NMR.tau. mice [2]; [17]): 100.0%
- Onset p.a. % of control (male NMR.tau. mice [3]; [17]): 100.0%
- Onset x (male NMR.tau. mice [3]; [17]): 4.27 min
- Effect on onset, in words (male NMR.tau. mice [3]; mouse, in vivo): marked effect
- Optimum % of control (tail and corneal reflex; [17]): 100.0%
- Optimum Min. (tail and corneal reflex; [17]): 10 min

Compound: OCC(S)CS (stereo not shown) [Dimercaprol (BAL)]
- Decomposition of pentobarbital [5]: checks the decomposition of pentobarbital

Compound: Fc1ccc(C(c2ccc(F)cc2)N2CCN(C/C=C/c3ccccc3)CC2)cc1 [Flunarizine]
- Sleep Time (male NMRJ mice [1]; flunarizine 0.25 mg/kg + cyclobarbital-Ca 239 mg/kg): 39.54 min
- Sleep Time (male NMRJ mice [1]; flunarizine 1.0 mg/kg + cyclobarbital-Ca 239 mg/kg, ***p <0.001): 62.67 min
- Sleep Time (male NMRJ mice [1]; flunarizine 1.0 mg/kg + hexobarbital 710 mg/kg): 40.44 min
- Sleep Time (male NMRJ mice [1]; flunarizine 2.5 mg/kg + cyclobarbital-Ca 239 mg/kg, ***p <0.001): 75.15 min
- Sleep Time (male NMRJ mice [1]; flunarizine 2.5 mg/kg + cyclobarbital-Ca + hexobarbital (40 + 30) 225 mg/kg): 33.45 min
- Sleep Time (male NMRJ mice [1]; flunarizine 2.5 mg/kg + hexobarbital 710 mg/kg): 45.17 min
- Sleep Time (male NMRJ mice [1]; flunarizine 5.0 mg/kg + hexobarbital 710 mg/kg, ***p <0.001): 94.51 min
- Sleep Time (male NMRJ mice [1]; flunarizine 10.0 mg/kg + cyclobarbital-Ca + hexobarbital (40 + 30) 225 mg/kg, **p <0.01): 56.49 min
- Sleep Time (male NMRJ mice [1]; flunarizine 15.0 mg/kg + cyclobarbital-Ca + hexobarbital (40 + 30) 225 mg/kg, ***p <0.001): 65.12 min
- ED50 (male NMRJ mice [1]; flunarizine with cyclobarbital-Ca 239 mg/kg, range (0.29-0.45)): 0.38 mg/kg
- ED50 (male NMRJ mice [1]; flunarizine with cyclobarbital-Ca + hexobarbital (40 + 30) 225 mg/kg, range (6.85-8.30)): 7.52 mg/kg
- ED50 (male NMRJ mice [1]; flunarizine with hexobarbital 710 mg/kg, probit analysis): 2.94 mg/kg
- Dosage to obtain an ED50 with the combination of both barbiturates (male NMRJ mice [1]; in comparison with the individual barbiturates): higher dosages
- Effect on the action of barbiturates (male NMRJ mice [1]): potentiating or enhancing effect
- Potency for cyclobarbital-calcium (male NMRJ mice [1]; with cyclobarbital-calcium): highest potency
- Antihistaminic properties [6]: only weak antihistaminic properties

Compound: CN1C(=O)NC(=O)C(C)(C2=CCCCC2)C1=O (stereo not shown) [Hexobarbital]
- Sleep Time (male NMRJ mice [4]; 250 mg/kg oral): 3.03 min
- Sleep Time (male NMRJ mice [4]; 500 mg/kg oral): 16.52 min
- Sleep Time (male NMRJ mice [4]; 750 mg/kg oral): 32.53 min
- Sleep Time (male NMRJ mice [4]; 1000 mg/kg oral): 56.08 min
- ED50 (male NMRJ mice [4]): 710 mg/kg
- Sleep Time (male NMRJ mice [1]; hexobarbital 710 mg/kg alone, cinnarizine series): 32.74 min
- Sleep Time (male NMRJ mice [1]; hexobarbital 710 mg/kg alone, flunarizine series): 38.78 min
- Sleep Time (male NMR.tau. mice [2]; [18]): 35.86 min
- Sleep Time % of control (male NMR.tau. mice [2]; [18]): 100.0%
- Onset p.a. % of control (male NMR.tau. mice [3]; [18]): 100.0%
- Onset x (male NMR.tau. mice [3]; [18]): 2.89 min
- Optimum % of control (tail and corneal reflex; [18]): 100.0%
- Optimum Min. (tail and corneal reflex; [18]): 10 to 20 min
- Optimum Reflex (tail and corneal reflex; [18]): -1

Compound: CCCC(C)(COC(N)=O)COC(N)=O [Meprobamate]
- Effect on barbiturates [7]: pontentiating or enhancing effect on barbiturates

Compound: CCC1(c2ccccc2)C(=O)NC(=O)NC1=O [Phenobarbital]
- Sleep Time (male NMRJ mice [4]; 200 mg/kg oral): 4.29 min
- Sleep Time (male NMRJ mice [4]; 250 mg/kg oral): 27.52 min
- Sleep Time (male NMRJ mice [4]; 300 mg/kg oral): 49.06 min
- Sleep Time (male NMRJ mice [4]; 400 mg/kg oral): 49.28 min
- ED50 (male NMRJ mice [4]): 256 mg/kg
- Sleep Time (male NMRJ mice [1]; phenobarbital 256 mg/kg alone, cinnarizine series): 22.34 min

Compound: tocopherol
- Effect on barbiturates [7]: increases the effect of barbiturates
